Experimental findings from US11002524B2, “Cyclic compounds and process for the preparation thereof” (Council of Scientific & Industrial Research, priority 2016, dated 2021) are described below.

Converted amounts (≈) assume the structure as drawn. Read-outs that look alike come from different tables or passages of the source. A value given as a limit tells only on which side of the number the result lay.

This assay has as its system Salmonella enterica strain AMC (ATCC #6539). The experiment in a line: Antibacterial MIC assay (Promega BacTiter-Glo microbial cell viability assay). The assay is classed as cell-based. The method, then: (§1) The minimum inhibitory concentrations (MICs) are determined using the Promega Bac Titer-Glo microbial cell viability assay, which measures cell viability by quantitation of ATP present, an indicator of metabolic activity of cells. The assays are carried out using Salmonella enterica strain AMC (ATCC #6539), Inocula of S. enterica are prepared from 12-h broth cultures grown in Mueller Hinton broth and the suspensions were then adjusted to a turbidity of 0.5 McFarland. […] Bacterial cells are treated with hunanamycin analogs for 24 hours at ranges from 0.4 to 40 μg/mL and ciprofloxacin as a control ranging from 0.03 to 10 μg/mL. The OD600 is measured using an Envision multi-modal plate reader (Perkin-Elmer, Inc.).
as §1, with “(MICs) were” for “(MICs) are”, “assays were” for “assays are”, “enterica were” for “enterica are”, “cells were” for “cells are”, “OD600 was” for “OD600 is”, “Inc.). The antibiotic assays were performed in Prof. John B. MacMillan's lab, Department of Biochemistry, University of Texas Southwestern Medical Center at Dallas, USA.” for “Inc.).”

Setting [1] is: S. enterica AMC ATCC #6539, 24 hours treatment, 0.4 to 40 μg/mL, Mueller Hinton broth, Table 1 in Example 9.
[2] abbreviates: Salmonella enterica, ATCC6539, S. enterica AMC ATCC #6539, 24 hours treatment, 0.4 to 40 μg/mL, Mueller Hinton broth, Table 1 in description, read-out: MIC.

In general, MIC refers to the lowest concentration found to suppress growth. Turning to `Cc1cc2c(cc1C)n(C[C@H](O)[C@H](O)[C@H](O)CO)c(=O)c(=O)n2CC=C1CCCCC1` [Compound 6, 1-(2-cyclohexylideneethyl)-6,7-dimethyl-4-((2S,3S,4R)-2,3,4,5-tetrahydroxypentyl)-1,4-dihydroquinoxaline-2,3-dione], the “MIC” value is, setting by setting: under setting [1], >32 µg/mL; under setting [2], > 32 µg/mL.
In the same order, the values of `C=CCn1c(=O)c(=O)n(C[C@H](O)[C@H](O)[C@H](O)CO)c2cc(C)c(C)cc21` [Compound 4, 1-allyl-6,7-dimethyl-4-((2S,3S,4R)-2,3,4,5-tetrahydroxypentyl)-1,4-dihydroquinoxaline-2,3-dione] are 16 µg/mL (≈ 43.9 µM) and 16 µg/mL (≈ 43.9 µM).
For `Cc1cc2c3c(c1C)C(C)(C)CCn3c(=O)c(=O)n2C[C@H](O)[C@H](O)[C@H](O)CO` [Huanamycin A, 7,7,8,9-tetramethyl-1-((2S,3S,4R)-2,3,4,5-tetrahydroxypentyl)-6,7-dihydro-1H,5H-4l4,41l5-4,41-methanopyrido[3,2,1-ij]quinoxaline-2,3-dione, reference compound], the “MIC” value reads like this: under setting [1], 8 µg/mL (≈ 20.4 µM); (Salmonella enterica, ATCC6539, 24 h) 8 µg/mL (≈ 20.4 µM).
For the compound `CCOC(=O)Cn1c(=O)c(=O)n(C[C@H](O)[C@H](O)[C@H](O)CO)c2cc(C)c(C)cc21` [Compound 7, ethyl 2-(6,7-dimethyl-2,3-dioxo-4-((2S,3S,4R)-2,3,4,5-tetrahydroxypentyl)-3,4-dihydroquinoxalin-1(2H)-yl)acetate], the minimal inhibitory concentration (MIC) came out at 16 µg/mL (≈ 39 µM) under setting [1] and 16 µg/mL (≈ 39 µM) under setting [2].
Take `Cc1cc2c(cc1C)n(C[C@H](O)[C@H](O)[C@H](O)CO)c(=O)c(=O)n2CCC1CCCCC1` [Compound 10, 1-(2-cyclohexylethyl)-6,7-dimethyl-4-((2S,3S,4R)-2,3,4,5-tetrahydroxypentyl)-1,4-dihydroquinoxaline-2,3-dione]: the “MIC” value by setting is: under setting [1], 8 µg/mL (≈ 18.4 µM); under setting [2], 8 µg/mL (≈ 18.4 µM).
On to `CCn1c(=O)c(=O)n(C[C@H](O)[C@H](O)[C@H](O)CO)c2cc(C)c(C)cc21` [Compound 5, 1-ethyl-6,7-dimethyl-4-((2S,3S,4R)-2,3,4,5-tetrahydroxypentyl)-1,4-dihydroquinoxaline-2,3-dione], for which the “MIC” value under setting [1] was >32 µg/mL and the MIC under setting [2] was > 32 µg/mL.
Taken in the same sequence, the figures for `Cc1cc2c(cc1C)n(C[C@H](O)[C@H](O)[C@H](O)CO)c(=O)c(=O)n2Cc1ccccc1` [Compound 8, 1-benzyl-6,7-dimethyl-4-((2S,3S,4R)-2,3,4,5-tetrahydroxypentyl)-1,4-dihydroquinoxaline-2,3-dione] were >32 µg/mL and > 32 µg/mL.
In the same order, the values of `CC(C)=CCn1c(=O)c(=O)n(C[C@H](O)[C@H](O)[C@H](O)CO)c2cc(C)c(C)cc21` [Compound 3, 6,7-dimethyl-1-(3-methylbut-2-en-1-yl)-4-((2S,3S,4R)-2,3,4,5-tetrahydroxypentyl)-1,4-dihydroquinoxaline-2,3-dione] are 16 µg/mL (≈ 40.8 µM) and 16 µg/mL (≈ 40.8 µM).
Taken in the same sequence, the figures for `Cc1cc2[nH]c(=O)c(=O)n(C[C@H](O)[C@H](O)[C@H](O)CO)c2cc1C` [Compound 2, 6,7-dimethyl-1-((2S,3S,4R)-2,3,4,5-tetrahydroxypentyl)-1,4-dihydroquinoxaline-2,3-dione] were >32 µg/mL and > 32 µg/mL.
